{"source": "patent US6342490B1", "about": "“Pharmaceutical composition containing uscharidin or its analogues” (Phyto Corporation Limited, priority 1997, dated 2002)", "key": {"[1]": {"test_system": "tumour", "conditions": "cited from earlier work"}, "[2]": {"test_system": "cancer cell lines", "assay": "NCI in vitro cell screening (SRB, dose-response)", "format": "cell-based", "conditions": "NCI panel, 48 hours", "text": "Uscharin was obtained as in Example 2 and was subjected to in vitro cell screening at the National Cancer Institute (NCI), USA in respect of a panel of cancel cell types organised into subpanels representing leukemia, lung cancers, colon cancer, cancer of the central nervous system, melanoma, ovarian cancer, renal cancer, and in some cases prostate cancer and breast cancer also.\nThe standard NCI methodology which was employed is described in Michael R Boyd, Principles and Practices of Oncology, Vol, 3, No. 10 (October 1989) and Monks A. et al., Journal of the National Cancer Institute, Vol. 83, No. 11, (Jun. 5, 1991).\nThe Dose-Response Curve is created by plotting the Calculated Percent Growth (PG) of each cell line against the log(10) of the corresponding drug concentration. The cell line curves are grouped by cell type, or subpanel. Mean Log(10) concentrations for all cell lines tested are calculated at three points: where the test compound achieved 50% inhibition of cell growth (GI50), where the test compound achieved 0% cell growth or total growth inhibition (TGI), and where the test compound achiveved 50% cell kill or 50% lethal concentration (LC50). Reference lines are shown at the percent growth values of +50 (GI50), 0 (TGI) and −50 (LC50).\nPercentage Growth (PG)—of the compound on a cell line is currently calculated according to one of the following expressions:\nIf (Mean OD(test)−Mean OD(tzero)>=0,\nPG=100×(Mean OD(test)−Mean OD(tzero)/(mean OD(ctrl)−Mean OD(tzero)\nIf (Mean OD(test−Mean OD(tzero)<0,\nPG=100×(Mean OD(test)−Mean OD(tzero)/Mean OD(tzero)\nMean OD (tzero)=The average of optical density measurements of SRB-derived colour just before exposure of cells to the test compound.\nMean OD (test)=The average of optical density measurements of SRB-derived colour after 48 hours […] of cells to the test compound.\nMean OD (ctrl)=The average of optical density measurements of SRB-derived colour after 48 hours […] of cells to the test compound."}, "[3]": {"test_system": "primate tumour cells", "conditions": "cited from earlier work"}, "[4]": {"test_system": "SCC-1 cells", "assay": "Nude mice injected with SCC-1 human tumour cells, drug treatment", "format": "in vivo, mice (BALB/c nude)", "conditions": "nude mice with SCC-1 cells; versus control", "protocol": "The SCCI cells (human tumour cell line) where grown (1×10^5/ml seeding density) in 25 ml RPMI 1640 (10% foetal calf serum, 5% glutamine) in 75 cm^2 tissue culture flasks. The cells were harvested at log growth phase (5 days approximately) and washed once in saline before injection into the mice.\nThe “nude” mice (BALB/c nude) are reared and contained within a sealed isolator. The mice were injected with 1×10^7 cells subcut on the back, right hand side near the shoulder blades. After 7 days the mice were split randomly into the study groups (10-15 animals per group). Each was then treated with a different regime, the variable being time between injections and dose of drug at each injection, control groups were also included in the overall plan of the experiement.\nDuring the trial a daily check was made on the animals and any animal removed if the tumour size became too large (>5-7% total body weight) or if the animal is showing signs of distress. Additional to this the tumour should be assessed every 3-4 days by an independent observer and the result recorded. Once an animal is removed from the study the tumour size, volume and weight was determined and the tumour stored for further cytological study. The reason for the animals removal from the study was also recorded, if this was not due to tumour size. […]"}}, "data": [{"smiles": "C[C@@H]1C[C@H](O)[C@]2(O)O[C@@H]3C[C@@]4(C=O)[C@@H](CC[C@@H]5[C@@H]4CC[C@]4(C)[C@@H](C6=CC(=O)OC6)CC[C@]54O)C[C@H]3O[C@@H]2O1", "note": "[calotropin]", "values": [{"measurement": "in vivo tumour-inhibiting activity", "setting": "[1]", "result": "no in vivo tumour-inhibiting activity"}]}, {"smiles": "C[C@H]1O[C@H]2O[C@@H]3C[C@@H]4CC[C@@H]5C(CC[C@]6(C)[C@@H](C7=CC(=O)OC7)CC[C@]56O)[C@@]4(C=O)C[C@H]3O[C@@]2(O)[C@H](O)[C@@H]1O", "note": "(stereo partly shown) [calotoxin]", "values": [{"measurement": "inhibitory effect on the growth of cancer cell lines in vitro", "setting": "[2]", "result": "inhibitory effect"}]}, {"smiles": "C[C@@H]1CC(=O)[C@]2(O)O[C@@H]3C[C@@]4(C=O)[C@@H](CC[C@@H]5[C@@H]4CC[C@]4(C)[C@@H](C6=CC(=O)OC6)CC[C@]54O)C[C@H]3O[C@@H]2O1", "note": "[Uscharidin, uscharidin]", "values": [{"measurement": "inhibitory effect on the growth of cancer cell lines in vitro", "setting": "[2]", "result": "inhibitory effect"}]}, {"smiles": "C[C@]12CC[C@H](O)C[C@@H]1CC[C@@H]1[C@@H]2CC[C@]2(C)[C@@H](C3=CC(=O)OC3)CC[C@]12O", "note": "[uzarigenin]", "values": [{"measurement": "cytotoxic activity against primate tumour cells", "setting": "[3]", "result": "cytotoxic activity"}, {"measurement": "in vivo tumour-inhibiting activity", "setting": "[1]", "result": "no in vivo tumour-inhibiting activity"}]}, {"smiles": "C[C@@H]1C[C@@]2(N=CCS2)[C@]2(O)O[C@@H]3C[C@@]4(C=O)[C@@H](CC[C@@H]5[C@@H]4CC[C@]4(C)[C@@H](C6=CC(=O)OC6)CC[C@]54O)C[C@H]3O[C@@H]2O1", "note": "[Uscharin, uscharin]", "values": [{"measurement": "inhibitory effect on the growth of cancer cell lines in vitro", "setting": "[2]", "result": "inhibitory effect"}, {"measurement": "reduction in percentage mortality due to the cancer cells", "setting": "[4]", "result": "up to 45%"}]}]}
